Data as given in the supplement of paper PMC10307832.

How the values were obtained:
Assay in all cases: relative viability (nuclei count vs DMSO), 5 days (fraction); higher = more cells survive
[1] = compound: C=CCn1c(=O)c2cnc(Nc3ccc(N4CCN(C)CC4)cc3)nc2n1-c1cccc(C(C)(C)O)n1 [Adavosertib] + CC(=O)Nc1cccc(-n2c(=O)n(C3CC3)c(=O)c3c(Nc4ccc(I)cc4F)n(C)c(=O)c(C)c32)c1 [Trametinib] (partner 0.02 µM)
How it was run: (§1)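 Five library-drug doses in √10 steps were combined with a fixed anchor-drug dose, or a single drug was given alone, by pin tool to lung cancer cell lines in 1536-well plates the day after seeding. Nuclei were stained and counted after 5 days. Relative viability is the nuclei count in treated wells over that in vehicle wells, taken as the median of duplicate plates.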

[2] = compound: C=CCn1c(=O)c2cnc(Nc3ccc(N4CCN(C)CC4)cc3)nc2n1-c1cccc(C(C)(C)O)n1 [Adavosertib] + CCNC(=O)c1noc(-c2cc(C(C)C)c(O)cc2O)c1-c1ccc(CN2CCOCC2)cc1 [Luminespib] (partner 0.01 µM)
How it was run: as §1

[3] = compound: COc1nc(N)nc2c1ncn2[C@@H]1O[C@H](CO)[C@@H](O)[C@@H]1O [Nelarabine] + CS(=O)(=O)N1CCN(Cc2cc3nc(-c4cccc5[nH]ncc45)nc(N4CCOCC4)c3s2)CC1 [Pictilisib] (partner 1 µM)
How it was run: as §1

[4] = compound: COc1nc(N)nc2c1ncn2[C@@H]1O[C@H](CO)[C@@H](O)[C@@H]1O [Nelarabine] + O=C(c1cc(Cc2n[nH]c(=O)c3ccccc23)ccc1F)N1CCN(C(=O)C2CC2)CC1 [Olaparib] (partner 8 µM)
How it was run: as §1

| Cell Line | relative viability ([1]; first compound 0.01 µM) | relative viability ([1]; first compound 0.03162 µM) | relative viability ([1]; first compound 0.1 µM) | relative viability ([1]; first compound 0.3162 µM) | relative viability ([2]; first compound 0.01 µM) | relative viability ([2]; first compound 0.03162 µM) | relative viability ([2]; first compound 0.1 µM) | relative viability ([2]; first compound 0.3162 µM) | relative viability ([3]; first compound 0.01 µM) | relative viability ([3]; first compound 0.03162 µM) | relative viability ([3]; first compound 0.1 µM) | relative viability ([3]; first compound 0.3162 µM) | relative viability ([3]; first compound 1 µM) | relative viability ([4]; first compound 0.01 µM) | relative viability ([4]; first compound 0.03162 µM) | relative viability ([4]; first compound 0.1 µM) | relative viability ([4]; first compound 0.3162 µM) | relative viability ([4]; first compound 1 µM) |
| --- | --- | --- | --- | --- | --- | --- | --- | --- | --- | --- | --- | --- | --- | --- | --- | --- | --- | --- |
| NCI-H1651 | 0.841 | 0.85 | 0.864 | 0.871 | 0.812 | 1.06 | 0.733 | 0.678 | 0.683 | 0.476 | 0.63 | 0.699 | 0.736 | 0.183 | 0.195 | 0.213 | 0.171 | 0.193 |
| LU99A | 0.624 | 0.61 | 0.634 | 0.464 | 0.314 | 0.188 | 0.221 | 0.198 | 0.302 | 0.269 | 0.327 | 0.321 | 0.299 | 0.276 | 0.239 | 0.252 | 0.249 | 0.26 |
| LK-2 | 0.759 | 0.823 | 0.701 | 0.84 | 0.163 | 0.216 | 0.182 | 0.183 | 0.68 | – | 0.503 | 0.436 | 0.651 | 0.689 | – | 0.701 | 0.601 | 0.635 |
| NCI-H1666 | 0.797 | 0.782 | 1.02 | 0.813 | 0.977 | 0.946 | 0.994 | 1.02 | 0.524 | 0.419 | 0.371 | 0.409 | 0.551 | 0.681 | 0.638 | 0.737 | 0.665 | 0.769 |
| H3255 | 0.576 | 0.591 | 0.616 | 0.634 | 0.801 | 1.03 | 0.937 | 0.95 | 0.534 | 0.494 | 0.456 | 0.394 | 0.477 | 0.624 | 0.553 | 0.54 | 0.583 | 0.558 |
| SK-MES-1 | 0.556 | 0.576 | 0.529 | 0.486 | 0.604 | 0.723 | 0.559 | 0.236 | 0.34 | 0.318 | 0.331 | 0.358 | 0.373 | 0.819 | 0.66 | 0.707 | 0.773 | 0.762 |
| NCI-H2023 | 0.575 | 0.521 | 0.62 | 0.267 | 0.8 | 0.771 | 0.441 | 0.31 | 0.309 | 0.316 | 0.176 | 0.216 | 0.252 | 0.597 | 0.497 | 0.503 | 0.422 | 0.455 |
| NCI-H1650 | 0.587 | 0.616 | 0.539 | 0.574 | 0.2 | 0.207 | 0.213 | 0.145 | 0.742 | 0.666 | 0.476 | 0.559 | 0.591 | 0.922 | 0.81 | 1 | 0.883 | 0.946 |
| LCLC-97TM1 | 0.223 | 0.171 | 0.227 | 0.21 | 0.78 | 0.54 | 0.982 | 0.804 | 0.196 | 0.202 | 0.152 | 0.248 | 0.22 | – | – | 0.413 | 0.358 | 0.388 |
